In this assay the test system is NBD1/3D. The experiment in a line: Aggregation analysis using differential static light scattering (DSLS), NBD1 thermal stability. Type of assay: binding, Human. The following applies: ΔTagg versus DMSO control; compound at 100 μM. The procedure:
Purified recombinant NBD1 was produced using previously described methods (A. Schmidt, J. L. Mendoza, P. J. Thomas (2011) Biochemical and Biophysical Approaches to Probe CFTR Structure (365-376) M. D. Amaral, K. Kunzelmann (eds.), Cystic Fibrosis, Methods in Molecular Biology 741, Springer Science+Business Media). The effect of test compounds on thermal stability of NBD1 was evaluated by differential static light scattering (DSLS) using the Harbinger Stargazer-384 instrument (Epiphyte Three, Toronto, Canada).
Test compounds were dissolved and diluted to desired concentrations in 100% DMSO. The compounds or DMSO controls (100 nL) were stamped into wells of a […] low volume optical plate (Corning Inc., Corning, NY) using the Echo 555 acoustic liquid handler (Labcyte Inc., San Jose, CA).
NBD1 protein was diluted to 0.2 mg/ml in S200 buffer (50 mM Tris-HCl, 150 mM NaCl, 5 mM MgCl2, 2 mM ATP, 2 mM DTT, pH7.6) containing 1% glycerol. 10 uL of protein solution was aliquoted into the 384-well plate harboring the test compounds and 10 uL mineral oil was overlayed onto the protein solution, using the epMotion robotic liquid handler (Eppendorf North America, Hauppauge, NY). After placing into the Stargazer instrument, the plate was heated at 1° C. per minute to 70° C. Images were captured from 25° C. to 70° C. every 0.5° C. At the end of the experiment run, instrument software integrated image files and analyzed data automatically. A […] regression curve was generated for each well, representing the increase in light scattering over time. A temperature of aggregation (Tagg) was calculated based on the inflection point of the curve. To better compare data across experiments the average Tagg for DMSO control wells was calculated and subtracted from values for wells containing compounds to obtain a “ΔTagg” value. These ΔTagg values reflect stabilizing efficacy of the compounds.
As for `CC(O)(c1cccc(CCC(=O)O)c1)c1cnc(-c2cc(Oc3c(F)cc4[nH]ccc4c3F)ccc2F)[nH]1` (single isomer, unassigned) [Example 216B, 3-(3-(1-(2-(5-((4,6-difluoro-1H-indol-5-yl)oxy)-2-fluorophenyl)-1H-imidazol-5-yl)-1-hydroxyethyl)phenyl) propanoic acid], the “DSLS NBD1/3D Human Stability delta-T (° C.) @ 100 (μM)” value (“DSLS NBD1/3D Human Stability delta-T” below) is “A (A: T ≥ 10° C.)”.
Next, `CC(c1c[nH]c(-c2cc(Oc3c(F)cc4[nH]ccc4c3S(C)(=N)=O)ccc2F)n1)c1cccc(CCC(=O)O)c1F` (single isomer, unassigned) [Example 136A, 3-(2-fluoro-3-(1-(2-(2-fluoro-5-((6-fluoro-4-(S-methylsulfonimidoyl)-1H-indol-5-yl)oxy)phenyl)-1H-imidazol-4-yl)ethyl)phenyl)propanoic acid]: “B (B: 5-10° C.)”; `CC(O)(c1cccc(CC2SC(=O)NC2=O)c1)c1cnc(-c2cccc(Oc3c(F)cc4[nH]ccc4c3F)c2)[nH]1` (centres unmarked) [Example 211, 5-(3-(1-(2-(3-((4,6-Difluoro-1H-indol-5-yl)oxy)phenyl)-1H-imidazol-5-yl)-1-hydroxyethyl)benzyl)thiazolidine-2,4-dione]: “B (B: 5-10° C.)”.
With `CC(C)(c1c[nH]c(-c2cc(Oc3c(F)cc4[nH]ccc4c3Cl)ccc2F)n1)c1cccc(CCC(=O)O)c1F` [Example 164, 3-(3-(2-(2-(5-((4-chloro-6-fluoro-1H-indol-5-yl)oxy)-2-fluorophenyl)-1H-imidazol-4-yl)propan-2-yl)-2-fluorophenyl)propanoic acid] the entry was “B (B: 5-10° C.)”; with `CC(CO)(c1cccc(CCC(=O)O)c1)c1cnc(-c2cc(Oc3c(F)cc4[nH]ccc4c3S(C)(=O)=O)ccc2F)[nH]1` (centres unmarked) [Example 68, 3-(3-(2-(2-(2-Fluoro-5-((6-fluoro-4-(methylsulfonyl)-1H-indol-5-yl)oxy)phenyl)-1H-imidazol-5-yl)-1-hydroxypropan-2-yl)phenyl)propanoic acid], “A (A: T ≥ 10° C.)”; with `CCc1c(Oc2cccc(-c3ncc(C(O)c4cccc(CCC(=O)O)c4)[nH]3)c2)ccc2[nH]ccc12` (centres unmarked) [Example 183, 3-(3-((2-(3-((4-Ethyl-1H-indol-5-yl)oxy)phenyl)-1H-imidazol-5-yl)(hydroxy)methyl)phenyl)propanoic acid], “B (B: 5-10° C.)”.
Next, `[2H]C([2H])([2H])C(C#N)(c1cc(F)cc(CCC(=O)O)c1)c1c[nH]c(-c2cc(Oc3c(F)c(F)c4[nH]ccc4c3F)ccc2F)n1` (single isomer, unassigned) [Example 65, 3-(3-(1-cyano-1-(2-(2-fluoro-5-((4,6,7-trifluoro-1H-indol-5-yl)oxy)phenyl)-1H-imidazol-4-yl)ethyl-2,2,2-d3)-5-fluorophenyl)propanoic acid]: “B (B: 5-10° C.)”; `CC(C)(c1cccc(CCC(=O)O)c1)c1cnc(-c2cc(Oc3c(F)cc4[nH]ccc4c3F)ccc2F)[nH]1` [Example 145, 3-(3-(2-(2-(5-((4,6-difluoro-1H-indol-5-yl)oxy)-2-fluorophenyl)-1H-imidazol-5-yl)propan-2-yl)phenyl)propanoic acid]: “B (B: 5-10° C.)”; `COCCOC(c1cccc(CCC(=O)O)c1)c1cnc(-c2cc(Oc3c(F)cc4[nH]ccc4c3C)ccc2F)[nH]1` (centres unmarked) [Example 236, 3-(3-((2-(2-fluoro-5-((6-fluoro-4-methyl-1H-indol-5-yl)oxy)phenyl)-1H-imidazol-5-yl)(2-methoxyethoxy)methyl)phenyl) propanoic acid]: “B (B: 5-10° C.)”.
On to `Cc1c(Oc2ccc(F)c(-c3ncc(C(OCCO)c4cccc(CCC(=O)O)c4)[nH]3)c2)c(F)cc2[nH]ccc12` (centres unmarked) [Example 235, 3-(3-((2-(2-fluoro-5-((6-fluoro-4-methyl-1H-indol-5-yl)oxy)phenyl)-1H-imidazol-5-yl)(2-hydroxyethoxy)methyl)phenyl) propanoic acid], for which the “DSLS NBD1/3D Human Stability delta-T” value is on record as “B (B: 5-10° C.)”.
As to `Cc1c(Oc2cccc(-c3ncc(C(C)(O)c4cccc(CCS(C)(=O)=O)c4)[nH]3)c2)c(F)cc2[nH]ccc12` (centres unmarked) [Example 208, 1-(2-(3-((6-fluoro-4-methyl-1H-indol-5-yl)oxy)phenyl)-1H-imidazol-5-yl)-1-(3-(2-(methylsulfonyl)ethyl)phenyl)ethan-1-ol], the “DSLS NBD1/3D Human Stability delta-T” value is “C (C: ≤5° C.)”.
Next, `Cc1c(Oc2ccc(F)c(-c3ncc(C4(c5cccc(CCC(=O)O)c5)CCOCC4)[nH]3)c2)c(F)cc2[nH]ccc12` [Example 148, 3-(3-(4-(2-(2-fluoro-5-((6-fluoro-4-methyl-1H-indol-5-yl)oxy)phenyl)-1H-imidazol-5-yl)tetrahydro-2H-pyran-4-yl)phenyl)propanoic acid]: “A (A: T ≥ 10° C.)”; `CC(c1cnc(-c2cc(Oc3c(F)cc4[nH]ccc4c3CC(F)(F)F)ccc2F)[nH]1)c1cccc(CCC(=O)O)c1F` (single isomer, unassigned) [Example 128A, 3-(2-fluoro-3-(1-(2-(2-fluoro-5-((6-fluoro-4-(2,2,2-trifluoroethyl)-1H-indol-5-yl)oxy)phenyl)-1H-imidazol-5-yl)ethyl)phenyl)propanoic acid]: “B (B: 5-10° C.)”; `CC(O)(c1cccc(CCC(=O)O)c1)c1cnc(-c2cc(Oc3c(F)cc4[nH]ccc4c3F)ccc2F)[nH]1` (single isomer, unassigned) [Example 216A, 3-(3-(1-(2-(5-((4,6-difluoro-1H-indol-5-yl)oxy)-2-fluorophenyl)-1H-imidazol-5-yl)-1-hydroxyethyl)phenyl) propanoic acid]: “B (B: 5-10° C.)”.
Consider `[2H]C([2H])([2H])C(C#N)(c1cccc(CCC(=O)O)c1)c1cnc(-c2cc(Oc3c(F)cc4[nH]ccc4c3F)ccc2F)[nH]1` (centres unmarked) [Example 60, 3-(3-(1-cyano-1-(2-(5-((4,6-difluoro-1H-indol-5-yl)oxy)-2-fluorophenyl)-1H-imidazol-5-yl)ethyl-2,2,2-d3)phenyl)propanoic acid], for which the “DSLS NBD1/3D Human Stability delta-T” value is on record as “B (B: 5-10° C.)”.
Turning to `CC(c1cnc(-c2cc(Oc3c(F)cc4[nH]ccc4c3CCP(C)(C)=O)ccc2F)[nH]1)c1cccc(CCC(=O)O)c1F` (single isomer, unassigned) [Example 135B, 3-(3-(1-(2-(5-((4-(2-(dimethylphosphoryl)ethyl)-6-fluoro-1H-indol-5-yl)oxy)-2-fluorophenyl)-1H-imidazol-5-yl)ethyl)-2-fluorophenyl)propanoic acid], the “DSLS NBD1/3D Human Stability delta-T” value is recorded as “C (C: ≤5° C.)”.
`CC(C#N)(c1cccc(CCC(=O)O)c1)c1c[nH]c(-c2cc(Oc3c(F)cc4[nH]ccc4c3F)ccc2F)n1` (centres unmarked) [Example 58, 3-(3-(1-cyano-1-(2-(5-((4,6-difluoro-1H-indol-5-yl)oxy)-2-fluorophenyl)-1H-imidazol-4-yl)ethyl)phenyl)propanoic acid]: the “DSLS NBD1/3D Human Stability delta-T” value is given as “B (B: 5-10° C.)”.
